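Tested at 5 concentrations; 48 h exposure; 96-well plates; endpoints linearly interpolated, else capped at highest concentration. Here, GI50 denotes the concentration required for 50% inhibition of growth. TGI denotes the concentration required for complete inhibition of growth.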
Tests used:
Experiment in all cases: DTP human tumour cell line panel, 48 h
K-562 leukemia = system: K-562 leukemia
SK-MEL-28 melanoma = system: SK-MEL-28 melanoma
IGROV1 ovarian = system: IGROV1 ovarian
HCT-15 colon = system: HCT-15 colon
ACHN renal = system: ACHN renal
MALME-3M melanoma = system: MALME-3M melanoma
U251 CNS = system: U251 CNS
NCI-H522 lung = system: NCI-H522 lung
HT29 colon = system: HT29 colon
SF-268 CNS = system: SF-268 CNS

SMILES	TGI (K-562 leukemia) [µM]	TGI (SK-MEL-28 melanoma) [µM]	TGI (IGROV1 ovarian) [µM]	TGI (HCT-15 colon) [µM]	TGI (ACHN renal) [µM]	TGI (MALME-3M melanoma) [µM]	TGI (U251 CNS) [µM]	TGI (NCI-H522 lung) [µM]	TGI (HT29 colon) [µM]	TGI (SF-268 CNS) [µM]	GI50 (K-562 leukemia) [µM]	GI50 (SK-MEL-28 melanoma) [µM]	GI50 (IGROV1 ovarian) [µM]	GI50 (HCT-15 colon) [µM]	GI50 (ACHN renal) [µM]	GI50 (MALME-3M melanoma) [µM]	GI50 (U251 CNS) [µM]	GI50 (NCI-H522 lung) [µM]	GI50 (HT29 colon) [µM]	GI50 (SF-268 CNS) [µM]
CCOC(=O)c1c(CN2CCNCC2)nc2ccccc2c1-c1ccccc1	27.2	25.1	29.2	32.8	30.4	22	27.5	29	17.8	27.8	–	–	–	–	–	–	–	–	–	–
C/C=C\C(CC(=O)NCCc1cn(C(=O)OCc2ccccc2)c2ccccc12)CC(=O)OC (configuration not stated)	> 100	> 100	> 100	> 100	> 100	> 100	> 100	> 100	> 100	> 100	–	–	–	–	–	–	–	–	–	–
COC(=O)[C@H]1[C@@H](C(C)C)O[C@@H](C(C)C)O[C@H]1C(F)(F)F	> 100	> 100	> 100	> 100	> 100	> 100	> 100	> 100	> 100	> 100	–	–	–	–	–	–	–	–	–	–
Cc1cc(O)c(C(C)C)cc1SC#N	55	33.8	37.6	39.3	30.1	35.9	31.8	24.9	–	49.3	–	–	–	–	–	–	–	–	–	–
COc1nc(N(C)C)nc2c1n(C)c[n+]2C	> 100	> 100	> 100	> 100	> 100	> 100	> 100	> 100	> 100	> 100	–	–	–	–	–	–	–	–	–	–
N/N=C1/C2CN3CCN(C2)CC1(c1ccc([N+](=O)[O-])cc1)C3	> 100	> 100	> 100	–	> 100	> 100	> 100	> 100	> 100	> 100	–	–	–	–	–	–	–	–	–	–
NC(=S)N/N=C\c1ccc(OCc2cccc(COc3ccc(/C=N/NC(N)=S)cc3)n2)cc1	> 100	> 100	> 100	> 100	> 100	> 100	> 100	> 100	> 100	> 100	–	–	–	–	–	–	–	–	–	–
O=C(CCN1CCCC1)Nc1ccc2sc3ccccc3c(=O)c2n1	21.3	19.9	23.6	16.8	16.3	17.6	18.5	15.2	6.37	> 31.6	–	–	–	–	–	–	–	–	–	–
CC1OC2=N[C@@H]1C(=O)N[C@@H](C(C)C)C1=N[C@H](C(=O)N[C@@H](C(C)C)C3=N[C@H](C(=O)N[C@@H](C(C)C)C4=N[C@H](C(=O)N[C@H]2C(C)C)C(C)O4)C(C)O3)C(C)O1 (some centres not stated)	> 10	> 10	> 10	> 10	> 10	> 10	> 10	> 10	> 10	> 10	–	–	–	–	–	–	–	–	–	–
Cn1nc2n(c1=O)CCCN2	> 100	> 100	> 100	> 100	> 100	> 100	> 100	> 100	> 100	> 100	–	–	–	–	–	–	–	–	–	–
C/C(=C\c1ccccn1)c1ccccn1	> 100	> 100	> 100	> 100	> 100	> 100	> 100	> 100	> 100	> 100	–	–	–	–	–	–	–	–	–	–
CC[N+](C)(CC)CCC(O)(c1ccccc1)c1ccccc1	> 100	> 100	> 100	> 100	> 100	> 100	> 100	> 100	> 100	> 100	–	–	–	–	–	–	–	–	–	–
CN(C)/N=C/c1cn(C)c(=O)n(C)c1=O	> 100	> 100	> 100	> 100	> 100	> 100	> 100	> 100	> 100	> 100	–	–	–	–	–	–	–	–	–	–
CCOC(=O)C1(C(=O)OCC)[C@H](c2ccccc2)C2=NO[C@@H]3CCC[C@H]1[C@H]23	> 100	> 100	> 100	> 100	> 100	> 100	> 100	> 100	> 100	> 100	–	–	–	–	–	–	–	–	–	–
O=C(NCc1cccc(C(F)(F)F)c1)c1cc2sccc2nc1C(F)(F)F	> 100	> 100	> 100	–	> 100	> 100	> 100	> 100	> 100	> 100	–	–	–	–	–	–	–	–	–	–
C/C(=N\NC(=S)N1CCCCC1)c1cccc(C)n1	> 73.8	36.9	12.8	21.6	2.67	2.13	11.5	10.6	16.2	4.23	–	–	–	–	–	–	–	–	–	–

SMILES	TGI (K-562 leukemia) [µM]	TGI (SK-MEL-28 melanoma) [µM]	TGI (IGROV1 ovarian) [µM]	TGI (HCT-15 colon) [µM]	TGI (ACHN renal) [µM]	TGI (MALME-3M melanoma) [µM]	TGI (U251 CNS) [µM]	TGI (NCI-H522 lung) [µM]	TGI (HT29 colon) [µM]	TGI (SF-268 CNS) [µM]	GI50 (K-562 leukemia) [µM]	GI50 (SK-MEL-28 melanoma) [µM]	GI50 (IGROV1 ovarian) [µM]	GI50 (HCT-15 colon) [µM]	GI50 (ACHN renal) [µM]	GI50 (MALME-3M melanoma) [µM]	GI50 (U251 CNS) [µM]	GI50 (NCI-H522 lung) [µM]	GI50 (HT29 colon) [µM]	GI50 (SF-268 CNS) [µM]
Cc1ccc(C(=O)O)c(CC2Cc3c(C)cccc3C2=O)c1 (configuration not stated)	> 100	> 100	> 100	> 100	> 100	> 100	> 100	> 100	> 100	> 100	–	–	–	–	–	–	–	–	–	–
Nc1nc(-c2ccccc2N=NN2CCCC2)nc2ccccc12	10.2	25.2	17.3	11.1	11.7	13.5	8.91	16.5	10.8	21.5	–	–	–	–	–	–	–	–	–	–
C(=C\c1cccc(/C=C/c2ccccn2)n1)/c1ccccn1	> 100	> 100	> 100	> 100	> 100	39.9	> 100	28.8	> 100	37.2	–	–	–	–	–	–	–	–	–	–
COc1nc2c(c(=O)n1C)N[C@H]1[C@H](OC(C)=O)[C@@H](OC(C)=O)CO[C@H]1N2	> 100	> 100	> 100	> 100	> 100	> 100	> 100	> 100	> 100	> 100	–	–	–	–	–	–	–	–	–	–
N#CC(C#N)=C1C(C#N)=C(N)NC12OCCO2	> 100	> 100	> 100	> 100	> 100	> 100	> 100	> 100	> 100	> 100	–	–	–	–	–	–	–	–	–	–
Cc1cc(/C=C\c2ccc3ccccc3[n+]2C)c(O)c2ncccc12	> 100	4.39	2.38	17.8	2.15	5.16	> 100	5.02	21.7	8.63	0.169	0.517	0.413	1.52	0.584	1.17	0.537	1.05	0.218	0.486
OCC1OC(n2cnc3cncnc32)C(O)C1O (configuration not stated)	9.77	5.23	4.81	2.08	–	4.73	4.58	5.42	2.89	2.98	–	–	–	–	–	–	–	–	–	–
C=C(CCC(C)C1CCC2C3=C(C(=O)CC21C)C1(C)CCC(=O)[C@@H](C)C1CC3=O)C(C)C(=O)O (some centres not stated)	35.2	> 100	> 100	> 100	88.6	> 100	> 100	> 100	> 100	> 100	–	–	–	–	–	–	–	–	–	–
Clc1ccc(Cc2nc3ccccc3nc2-c2cccc(Br)c2)cc1	8.46	–	3.49	3.11	3.44	22.5	20.9	3.62	6.13	44.9	–	–	–	–	–	–	–	–	–	–
CN(C)c1nc(N(C)C)nc(N(C)C23CC4CC(CC(C4)C2)C3)n1	> 100	> 100	58.8	> 100	> 100	95.7	> 100	41	–	> 100	–	–	–	–	–	–	–	–	–	–
Cc1ccc(S(=O)(=O)NNC(=O)c2cc(C)ccc2NC(=O)C23CC4CC(CC(C4)C2)C3)cc1	> 100	–	30.6	66.8	44.1	80.4	> 100	76.3	> 100	> 100	–	–	–	–	–	–	–	–	–	–
CCOC(=O)C(=[N+]=[N-])C(=O)Nc1nn2nnnc2c2ccccc12	> 100	> 100	> 100	–	> 100	> 100	> 100	> 100	> 100	–	–	–	–	–	–	–	–	–	–	–
Cc1ccc(C(C)(C)C[P+](C)(c2ccccc2)c2ccccc2)cc1	46	66.4	> 100	> 100	–	> 48.8	> 100	19.1	43.8	> 100	–	–	–	–	–	–	–	–	–	–
Cc1ccccc1-n1c(C)nc2c1C(=O)c1ccccc1C2=O	> 100	> 100	–	> 100	> 100	41.3	> 100	68.3	> 100	> 100	–	–	–	–	–	–	–	–	–	–
CCOC(=O)C(NC(=O)N(C1=NCC(C)S1)C1CCCCC1)(OC)C(F)(F)F (configuration not stated)	> 100	> 100	–	> 100	89.9	> 100	53.6	83.4	53	> 100	–	–	–	–	–	–	–	–	–	–
Cc1ccc(C(=O)N/N=C(\N=Nc2cccc(Cl)c2)c2ccc(N(CCC#N)CCC#N)cc2C)cc1	> 100	> 100	> 100	> 100	> 100	> 100	> 100	> 100	> 100	–	–	–	–	–	–	–	–	–	–	–
